Reference: PubChem BioAssay AID180 (DTP/NCI, 2004)
“And” between values parts separate entries of the source, which are not always exact repeats. Equal values may be shown once.

Tested on: BDF1 mice, Adenocarcinoma 755 s.c., tumor weight T/C
Test: NCI In Vivo Anticancer Drug Screen. Data for tumor model Adenocarcinoma 755 (subcutaneous) in B6D2F1 (BDF1) mice
Conditions: endpoint: mean tumor weight, higher = larger tumour
Protocol: The antitumor activity of compounds was measured in mice bearing transplantable tumors. Survival or tumor size were measured and the results are expressed as the measurement made in the treated group (T) divided by the measurement made in the vehicle treated control group (C). The tumor model used in this assay is Adenocarcinoma 755 (subcutaneous) in B6D2F1 (BDF1) mice

[1] = dose: 25.0 mg/kg/injection, schedule: Q01DX011 (ip), vehicle: methylcellulose (MC)
[2] = dose: 75.0 mg/kg/injection, schedule: Q01DX011 (ip), vehicle: methylcellulose (MC)

For `C[C@]12C[C@H](O)[C@H]3[C@@H](CCC4=CC(=O)CC[C@@]43C)[C@@H]1CC[C@@H]2C(=O)CO`, the T/C (dose: 10.0 mg/kg/injection, schedule: Q01DX011 (ip), vehicle: steriod suspending solution) was 110 % of control, the T/C (dose: 10.0 mg/kg/injection, schedule: Q01DX011 (sc), vehicle: steriod suspending solution) was 79 % of control and the T/C (dose: 20.0 mg/kg/injection, schedule: Q01DX011 (ip), vehicle: steriod suspending solution) was 103 % of control. For the same compound, the T/C (dose: 20.0 mg/kg/injection, schedule: Q01DX011 (sc), vehicle: steriod suspending solution) was 84 % of control, the T/C (dose: 40.0 mg/kg/injection, schedule: Q01DX011 (im), vehicle: steriod suspending solution) was 67 % of control and the T/C (dose: 40.0 mg/kg/injection, schedule: Q01DX011 (ip), vehicle: steriod suspending solution) was 81 % of control. For the same compound, the T/C (dose: 40.0 mg/kg/injection, schedule: Q01DX011 (iv), vehicle: steriod suspending solution) was 87 % of control, the T/C (dose: 40.0 mg/kg/injection, schedule: Q01DX011 (sc), vehicle: steriod suspending solution) was 64 % of control and the T/C (dose: 50.0 mg/kg/injection, schedule: Q#A X022 (sc), vehicle: steriod suspending solution) was 20 % of control. For the same compound, the T/C (dose: 80.0 mg/kg/injection, schedule: Q01DX011 (im), vehicle: steriod suspending solution) was 49 % of control, the T/C (dose: 80.0 mg/kg/injection, schedule: Q01DX011 (ip), vehicle: steriod suspending solution) was 95 % of control and the T/C (dose: 80.0 mg/kg/injection, schedule: Q01DX011 (iv), vehicle: steriod suspending solution) was 64 % of control. For the same compound, the T/C (dose: 80.0 mg/kg/injection, schedule: Q01DX011 (oral), vehicle: steriod suspending solution) was 58 % of control, the T/C (dose: 80.0 mg/kg/injection, schedule: Q01DX011 (sc), vehicle: steriod suspending solution) was 51 % of control and the T/C (dose: 100.0 mg/kg/injection, schedule: Q01DX011 (oral), vehicle: steriod suspending solution) was 38 % of control. For the same compound, the T/C (dose: 100.0 mg/kg/injection, schedule: Q#A X022 (sc), vehicle: steriod suspending solution) was 8 % of control, the T/C (dose: 150.0 mg/kg/injection, schedule: Q03DX004 (sc), vehicle: steriod suspending solution) was 51 % of control and the T/C (dose: 160.0 mg/kg/injection, schedule: Q01DX011 (im), vehicle: steriod suspending solution) was 30 % of control. The T/C (dose: 160.0 mg/kg/injection, schedule: Q01DX011 (ip), vehicle: steriod suspending solution) was 72 % of control, the T/C (dose: 160.0 mg/kg/injection, schedule: Q01DX011 (iv), vehicle: steriod suspending solution) was 42 % of control and the T/C (dose: 160.0 mg/kg/injection, schedule: Q01DX011 (sc), vehicle: steriod suspending solution) was 31 % of control. The T/C (dose: 175.0 mg/kg/injection, schedule: Q07DX002 (sc), vehicle: steriod suspending solution) was 104 % of control, the T/C (dose: 300.0 mg/kg/injection, schedule: Q03DX004 (sc), vehicle: steriod suspending solution) was 24 % of control and the T/C (dose: 320.0 mg/kg/injection, schedule: Q01DX011 (im), vehicle: steriod suspending solution) was 22 % of control. The T/C (dose: 320.0 mg/kg/injection, schedule: Q01DX011 (ip), vehicle: steriod suspending solution) was 42 % of control, the T/C (dose: 320.0 mg/kg/injection, schedule: Q01DX011 (oral), vehicle: steriod suspending solution) was 38 % of control and the T/C (dose: 320.0 mg/kg/injection, schedule: Q01DX011 (sc), vehicle: steriod suspending solution) was 16 % of control. For the same compound, the T/C (dose: 350.0 mg/kg/injection, schedule: Q07DX002 (sc), vehicle: steriod suspending solution) was 58 % of control, the T/C (dose: 400.0 mg/kg/injection, schedule: Q01DX011 (oral), vehicle: steriod suspending solution) was 22 % of control and the T/C (dose: 600.0 mg/kg/injection, schedule: Q03DX004 (sc), vehicle: steriod suspending solution) was 9 % of control. For the same compound, the T/C (dose: 640.0 mg/kg/injection, schedule: Q01DX011 (oral), vehicle: steriod suspending solution) was 17 % of control and 18 % of control, the T/C (dose: 700.0 mg/kg/injection, schedule: Q07DX002 (sc), vehicle: steriod suspending solution) was 20 % of control and the T/C (dose: 1200.0 mg/kg/injection, schedule: Q03DX004 (sc), vehicle: steriod suspending solution) was 5 % of control. The T/C (dose: 1400.0 mg/kg/injection, schedule: Q07DX002 (sc), vehicle: steriod suspending solution) was 16 % of control.
With `O=C(Nc1ccc(N=Nc2ccc(O)c(C(=O)O)c2)cc1)c1ccc(C(=O)Nc2ccc(N=Nc3ccc(O)c(C(=O)O)c3)cc2)cc1` the T/C (dose: 30.0 mg/kg/injection, schedule: Q01DX011 (ip), vehicle: carboxymethylcellulose (CMC)) was 92 % of control, the T/C (dose: 60.0 mg/kg/injection, schedule: Q01DX011 (ip), vehicle: carboxymethylcellulose (CMC)) was 75 % of control and the T/C (dose: 120.0 mg/kg/injection, schedule: Q01DX011 (ip), vehicle: carboxymethylcellulose (CMC)) was 102 % of control. For the same compound, the T/C (dose: 240.0 mg/kg/injection, schedule: Q01DX011 (ip), vehicle: carboxymethylcellulose (CMC)) was 98 % of control.
With `CCC(C)SC1=NC=NC2=NC=NC21` (configuration not stated) the T/C (dose: 9.0 mg/kg/injection, schedule: Q01DX011 (ip), vehicle: other) was 56 % of control, the T/C (dose: 13.0 mg/kg/injection, schedule: Q01DX011 (ip), vehicle: other) was 33 % of control and the T/C (dose: 20.0 mg/kg/injection, schedule: Q01DX011 (ip), vehicle: other) was 6 % of control. For the same compound, the T/C (dose: 30.0 mg/kg/injection, schedule: Q01DX011 (ip), vehicle: other) was 6 % of control.
For `CSc1cc(NCc2ccccc2)nc(N)n1`, the T/C [1] was 85 % of control and the T/C [2] was 65 % of control.
With `CN(C)CCO` the T/C (dose: 100.0 mg/kg/injection, schedule: Q01DX011 (ip), vehicle: other) was 97 % of control.
For `Cn1ncc2c([N+](C)(C)C)ncnc21`, the T/C (dose: 25.0 mg/kg/injection, schedule: Q01DX011 (ip), vehicle: saline) was 82 % of control and the T/C (dose: 75.0 mg/kg/injection, schedule: Q01DX011 (ip), vehicle: saline) was 111 % of control.
For `N#Cc1ccc(Nc2cc(Cl)nc(N)n2)cc1`, the T/C (dose: 15.0 mg/kg/injection, schedule: Q01DX011 (ip), vehicle: methylcellulose (MC)) was 89 % of control, the T/C (dose: 31.0 mg/kg/injection, schedule: Q01DX011 (ip), vehicle: methylcellulose (MC)) was 87 % of control and the T/C (dose: 62.0 mg/kg/injection, schedule: Q01DX011 (ip), vehicle: methylcellulose (MC)) was 50 % of control. For the same compound, the T/C (dose: 125.0 mg/kg/injection, schedule: Q01DX011 (ip), vehicle: methylcellulose (MC)) was 97 % of control and the T/C (dose: 250.0 mg/kg/injection, schedule: Q01DX011 (ip), vehicle: methylcellulose (MC)) was 65 % of control.
For `CNC(=O)Cc1ccccc1`, the T/C (dose: 125.0 mg/kg/injection, schedule: Q01DX011 (ip), vehicle: water) was 70 % of control, the T/C (dose: 250.0 mg/kg/injection, schedule: Q01DX011 (ip), vehicle: water) was 63 % of control and the T/C (dose: 500.0 mg/kg/injection, schedule: Q01DX011 (ip), vehicle: water) was 30 % of control.
`CC(C)CC(Nc1ncnc2nc[nH]c12)C(=O)O` (configuration not stated) was tested, and the T/C (dose: 12.0 mg/kg/injection, schedule: Q01DX011 (ip), vehicle: methylcellulose (MC)) was 110 % of control, the T/C [1] was 96 % of control and the T/C (dose: 50.0 mg/kg/injection, schedule: Q01DX011 (ip), vehicle: methylcellulose (MC)) was 101 % of control. The T/C (dose: 100.0 mg/kg/injection, schedule: Q01DX011 (ip), vehicle: methylcellulose (MC)) was 60 % of control.
In the case of `CC(=O)OCC1OC(n2ncc(=O)[nH]c2=O)C(OC(C)=O)C1OC(C)=O` (configuration not stated), the T/C (dose: 187.5 mg/kg/injection, schedule: Q01DX011 (ip), vehicle: other) is reported as 115 % of control, the T/C (dose: 375.0 mg/kg/injection, schedule: Q01DX011 (ip), vehicle: other) is reported as 121 % of control and the T/C (dose: 1500.0 mg/kg/injection, schedule: Q01DX011 (ip), vehicle: other) is reported as 43 % of control.
`CC(C)CSc1nc(N)nc2c1ncn2C1OC(CO)C(O)C1O` (configuration not stated) was tested, and the T/C (dose: 2.32 mg/kg/injection, schedule: Q01DX011 (ip), vehicle: methylcellulose (MC)) was 54 % of control, the T/C (dose: 4.65 mg/kg/injection, schedule: Q01DX011 (ip), vehicle: methylcellulose (MC)) was 37 % of control and the T/C (dose: 9.3 mg/kg/injection, schedule: Q01DX011 (ip), vehicle: methylcellulose (MC)) was 25 % of control. For the same compound, the T/C (dose: 18.75 mg/kg/injection, schedule: Q01DX011 (ip), vehicle: methylcellulose (MC)) was 12 % of control and 15 % of control, the T/C (dose: 37.5 mg/kg/injection, schedule: Q01DX011 (ip), vehicle: methylcellulose (MC)) was 3 % of control and the T/C [2] was 2 % of control. The T/C (dose: 150.0 mg/kg/injection, schedule: Q01DX011 (ip), vehicle: methylcellulose (MC)) was 2 % of control.
In the case of `Nc1nc(=S)c2ncn(C3OC(COC(=O)c4ccc(Cl)cc4)C(OC(=O)c4ccc(Cl)cc4)C3OC(=O)c3ccc(Cl)cc3)c2[nH]1` (configuration not stated), the T/C (dose: 0.88 mg/kg/injection, schedule: Q01DX011 (ip), vehicle: carboxymethylcellulose (CMC)) is reported as 94 % of control, the T/C (dose: 1.75 mg/kg/injection, schedule: Q01DX011 (ip), vehicle: carboxymethylcellulose (CMC)) is reported as 65 % of control and the T/C (dose: 3.5 mg/kg/injection, schedule: Q01DX011 (ip), vehicle: carboxymethylcellulose (CMC)) is reported as 102 % of control. For the same compound, the T/C (dose: 6.0 mg/kg/injection, schedule: Q01DX011 (ip), vehicle: carboxymethylcellulose (CMC)) was 72 % of control, the T/C (dose: 10.0 mg/kg/injection, schedule: Q01DX011 (ip), vehicle: carboxymethylcellulose (CMC)) was 6 % of control and the T/C (dose: 12.0 mg/kg/injection, schedule: Q01DX011 (ip), vehicle: carboxymethylcellulose (CMC)) was 23 % of control. The T/C (dose: 16.0 mg/kg/injection, schedule: Q01DX011 (ip), vehicle: carboxymethylcellulose (CMC)) was 1 % of control and the T/C (dose: 50.0 mg/kg/injection, schedule: Q01DX011 (ip), vehicle: carboxymethylcellulose (CMC)) was 2 % of control and 3 % of control.
